Columns and labels:
Assay in all cases: Kinase Profiler 10 μM panel
CK1δ(h) = CK1δ(h) (Homo sapiens (Human), UniProt P48730)
Method: (§1) In vitro kinase assays were conducted using Kinase Profiler services provided by Eurofins. The experimental method was as follows: the small molecule compound to be tested (0.001-10 μM), the protein kinase to be tested were incubated with a buffer containing substrate, 10 mM magnesium acetate, and [γ-^33P-ATP], the reaction was started by adding Mg\TPmix, after incubation for a period of time at room temperature, a 3% phosphate solution was added to the buffer to stop the reaction. Subsequently, 10 μL of the reaction mixture was quantitatively pipetted onto P30 filter paper, which was washed three times with 75 mM phosphate solution and then once with methanol. The P30 filter paper was air-dried and scintillation fluid was added for scintillation counting.

ULK2(h) = ULK2(h) (Homo sapiens (Human), UniProt Q8IYT8)
Method: as §1

CLK2(h) = CLK2(h) (Homo sapiens (Human), UniProt P49760)
Method: as §1

Plk1(h) = Plk1(h) (Homo sapiens (Human), UniProt P53350)
Method: as §1

SIK2(h) = SIK2(h) (Homo sapiens (Human), UniProt Q9H0K1)
Method: as §1

CLK3(h) = CLK3(h) (Homo sapiens (Human), UniProt P49761)
Method: as §1

GRK7(h) = GRK7(h) (Homo sapiens (Human), UniProt Q8WTQ7)
Method: as §1

VRK2(h) = VRK2(h) (Homo sapiens (Human), UniProt Q86Y07)
Method: as §1

Flt4(h) = Flt4(h) (Homo sapiens (Human), UniProt P35916)
Method: as §1

PhKγ1(h) = PhKγ1(h) (Homo sapiens (Human), UniProt Q16816)
Method: as §1

WNK2(h) = WNK2(h) (Homo sapiens (Human), UniProt Q9Y3S1)
Method: as §1

MuSK(h) = MuSK(h) (Homo sapiens (Human), UniProt O15146)
Method: as §1

MRCKγ(h) = MRCKγ(h) (Homo sapiens (Human), UniProt Q6DT37)
Method: as §1

CHK2(R145W)(h) = CHK2(R145W)(h) (Homo sapiens (Human), UniProt O96017, R145W)
Method: as §1

Ret(V804M)(h) = Ret(V804M)(h) (Homo sapiens (Human), UniProt P07949, V804M)
Method: as §1

Lyn(h) = Lyn(h) (Homo sapiens (Human), UniProt P07948)
Method: as §1

PKCγ(h) = PKCγ(h) (Homo sapiens (Human), UniProt P05129)
Method: as §1

STK16(h) = STK16(h) (Homo sapiens (Human), UniProt O75716)
Method: as §1

ALK2(h) = ALK2(h) (Homo sapiens (Human), UniProt Q04771)
Method: as §1

HIPK4(h) = HIPK4(h) (Homo sapiens (Human), UniProt Q8NE63)
Method: as §1

CDK16/cyclinY(h) = CDK16/cyclinY(h) (Homo sapiens (Human), UniProt Q00536)
Method: as §1

PI3 Kinase (p120g)(h) = PI3 Kinase (p120g)(h) (Homo sapiens (Human), UniProt P48736)
Method: as §1

CDK5/p25(h) = CDK5/p25(h) (Homo sapiens (Human), UniProt Q00535)
Method: as §1

EphA2(h) = EphA2(h) (Homo sapiens (Human), UniProt P29317)
Method: as §1

EphB1(h) = EphB1(h) (Homo sapiens (Human), UniProt P54762)
Method: as §1

Rsk3(h) = Rsk3(h) (Homo sapiens (Human), UniProt Q15349)
Method: as §1

CDK14/cyclinY(h) = CDK14/cyclinY(h) (Homo sapiens (Human), UniProt O94921)
Method: as §1

PKA(h) = PKA(h) (Homo sapiens (Human), UniProt P17612)
Method: as §1

CDK18/cyclinY(h) = CDK18/cyclinY(h) (Homo sapiens (Human), UniProt Q07002)
Method: as §1

DYRK3(h) = DYRK3(h) (Homo sapiens (Human), UniProt O43781)
Method: as §1

Rsk4(h) = Rsk4(h) (Homo sapiens (Human), UniProt Q9UK32)
Method: as §1

PRK1(h) = PRK1(h) (Homo sapiens (Human), UniProt Q16512)
Method: as §1

NIM1(h) = NIM1(h) (Homo sapiens (Human), UniProt Q8IY84)
Method: as §1

EphB2(h) = EphB2(h) (Homo sapiens (Human), UniProt P29323)
Method: as §1

Sequence of EphB1(h) (P54762 18-984): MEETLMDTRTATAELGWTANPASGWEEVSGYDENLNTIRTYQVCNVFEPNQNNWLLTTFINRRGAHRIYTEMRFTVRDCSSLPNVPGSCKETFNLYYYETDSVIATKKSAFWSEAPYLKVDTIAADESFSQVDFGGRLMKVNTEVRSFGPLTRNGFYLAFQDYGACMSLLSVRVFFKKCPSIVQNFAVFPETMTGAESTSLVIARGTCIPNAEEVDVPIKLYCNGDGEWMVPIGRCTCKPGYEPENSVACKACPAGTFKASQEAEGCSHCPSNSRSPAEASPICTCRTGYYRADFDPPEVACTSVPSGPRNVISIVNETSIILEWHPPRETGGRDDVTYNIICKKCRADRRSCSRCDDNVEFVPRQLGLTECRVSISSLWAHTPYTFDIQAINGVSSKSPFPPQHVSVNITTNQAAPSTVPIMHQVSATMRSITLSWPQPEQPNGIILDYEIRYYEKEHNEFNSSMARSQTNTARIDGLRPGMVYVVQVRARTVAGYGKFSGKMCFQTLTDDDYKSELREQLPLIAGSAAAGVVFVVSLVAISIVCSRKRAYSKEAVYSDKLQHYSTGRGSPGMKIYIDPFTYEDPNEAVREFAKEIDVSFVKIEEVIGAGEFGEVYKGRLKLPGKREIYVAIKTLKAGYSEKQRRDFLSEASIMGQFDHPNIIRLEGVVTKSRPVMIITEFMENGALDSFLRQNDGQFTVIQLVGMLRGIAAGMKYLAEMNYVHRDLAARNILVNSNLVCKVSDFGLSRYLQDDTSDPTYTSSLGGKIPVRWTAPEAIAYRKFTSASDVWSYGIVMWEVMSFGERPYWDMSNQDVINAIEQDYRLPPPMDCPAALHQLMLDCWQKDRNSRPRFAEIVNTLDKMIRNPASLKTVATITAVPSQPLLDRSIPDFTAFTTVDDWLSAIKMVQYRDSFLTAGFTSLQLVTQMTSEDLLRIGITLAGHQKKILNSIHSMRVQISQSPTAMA
Sequence of PhKγ1(h) (Q16816 whole entry): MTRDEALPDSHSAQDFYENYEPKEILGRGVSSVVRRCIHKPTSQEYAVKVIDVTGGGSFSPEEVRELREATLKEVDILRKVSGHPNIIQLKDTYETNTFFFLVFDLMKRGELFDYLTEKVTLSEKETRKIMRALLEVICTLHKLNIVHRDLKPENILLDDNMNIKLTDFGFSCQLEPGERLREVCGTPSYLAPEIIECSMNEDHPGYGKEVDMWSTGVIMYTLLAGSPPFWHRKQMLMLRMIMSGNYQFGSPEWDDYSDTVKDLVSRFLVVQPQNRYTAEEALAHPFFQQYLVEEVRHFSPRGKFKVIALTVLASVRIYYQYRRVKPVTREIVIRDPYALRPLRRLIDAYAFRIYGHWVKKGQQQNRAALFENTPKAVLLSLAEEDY
Sequence of DYRK3(h) (O43781 whole entry): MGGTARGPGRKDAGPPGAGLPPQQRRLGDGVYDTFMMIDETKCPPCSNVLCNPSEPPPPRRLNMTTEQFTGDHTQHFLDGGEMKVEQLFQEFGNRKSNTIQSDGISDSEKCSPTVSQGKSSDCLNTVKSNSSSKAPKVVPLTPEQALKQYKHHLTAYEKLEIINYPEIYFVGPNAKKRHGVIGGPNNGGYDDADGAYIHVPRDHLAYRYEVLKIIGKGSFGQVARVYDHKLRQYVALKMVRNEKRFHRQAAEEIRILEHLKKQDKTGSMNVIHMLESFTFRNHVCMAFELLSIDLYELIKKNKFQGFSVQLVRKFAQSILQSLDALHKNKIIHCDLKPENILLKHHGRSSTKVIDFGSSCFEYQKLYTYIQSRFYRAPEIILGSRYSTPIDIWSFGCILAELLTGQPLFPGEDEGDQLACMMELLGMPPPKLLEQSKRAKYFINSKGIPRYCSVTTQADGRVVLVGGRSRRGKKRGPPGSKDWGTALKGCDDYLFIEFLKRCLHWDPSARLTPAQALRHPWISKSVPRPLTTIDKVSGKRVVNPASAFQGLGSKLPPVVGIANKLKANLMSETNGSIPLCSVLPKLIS
Sequence of PRK1(h) (Q16512 whole entry): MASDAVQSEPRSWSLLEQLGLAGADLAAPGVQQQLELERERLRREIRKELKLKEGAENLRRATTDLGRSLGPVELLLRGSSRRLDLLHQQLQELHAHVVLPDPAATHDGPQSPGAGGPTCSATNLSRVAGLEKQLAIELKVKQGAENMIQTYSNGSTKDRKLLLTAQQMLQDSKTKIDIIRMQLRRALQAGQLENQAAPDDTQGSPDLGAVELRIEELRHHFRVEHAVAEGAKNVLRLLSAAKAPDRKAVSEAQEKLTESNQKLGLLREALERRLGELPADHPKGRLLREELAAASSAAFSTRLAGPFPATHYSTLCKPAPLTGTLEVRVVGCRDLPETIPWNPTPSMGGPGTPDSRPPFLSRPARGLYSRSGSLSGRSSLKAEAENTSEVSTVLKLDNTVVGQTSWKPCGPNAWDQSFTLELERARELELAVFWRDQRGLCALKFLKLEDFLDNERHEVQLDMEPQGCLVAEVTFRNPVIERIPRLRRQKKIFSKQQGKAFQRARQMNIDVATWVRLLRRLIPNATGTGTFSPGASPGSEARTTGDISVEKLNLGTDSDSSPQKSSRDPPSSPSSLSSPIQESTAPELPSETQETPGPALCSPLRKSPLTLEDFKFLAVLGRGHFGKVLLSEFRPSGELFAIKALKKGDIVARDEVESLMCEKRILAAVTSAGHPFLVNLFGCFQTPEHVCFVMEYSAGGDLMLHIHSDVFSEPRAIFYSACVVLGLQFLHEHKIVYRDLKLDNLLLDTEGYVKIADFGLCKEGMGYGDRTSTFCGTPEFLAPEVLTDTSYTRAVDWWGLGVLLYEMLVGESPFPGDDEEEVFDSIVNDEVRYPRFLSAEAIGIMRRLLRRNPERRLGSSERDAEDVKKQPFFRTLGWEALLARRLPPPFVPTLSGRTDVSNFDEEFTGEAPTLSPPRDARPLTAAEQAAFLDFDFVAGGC
Sequence of GRK7(h) (Q8WTQ7 whole entry): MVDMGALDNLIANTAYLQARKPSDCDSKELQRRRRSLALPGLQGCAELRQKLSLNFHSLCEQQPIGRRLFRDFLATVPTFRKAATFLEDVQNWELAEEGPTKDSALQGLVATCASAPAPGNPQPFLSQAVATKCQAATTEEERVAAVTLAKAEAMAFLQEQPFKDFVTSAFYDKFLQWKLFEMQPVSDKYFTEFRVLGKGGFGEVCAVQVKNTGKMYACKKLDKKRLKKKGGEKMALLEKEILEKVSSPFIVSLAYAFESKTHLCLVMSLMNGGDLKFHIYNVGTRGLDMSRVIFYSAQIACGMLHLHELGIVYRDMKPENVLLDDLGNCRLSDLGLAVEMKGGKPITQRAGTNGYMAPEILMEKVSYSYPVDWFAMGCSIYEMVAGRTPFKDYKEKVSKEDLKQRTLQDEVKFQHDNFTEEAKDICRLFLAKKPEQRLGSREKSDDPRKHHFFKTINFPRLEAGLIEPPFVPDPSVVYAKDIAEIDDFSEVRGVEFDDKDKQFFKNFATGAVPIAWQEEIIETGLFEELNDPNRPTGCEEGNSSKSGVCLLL
Sequence of VRK2(h) (Q86Y07 whole entry): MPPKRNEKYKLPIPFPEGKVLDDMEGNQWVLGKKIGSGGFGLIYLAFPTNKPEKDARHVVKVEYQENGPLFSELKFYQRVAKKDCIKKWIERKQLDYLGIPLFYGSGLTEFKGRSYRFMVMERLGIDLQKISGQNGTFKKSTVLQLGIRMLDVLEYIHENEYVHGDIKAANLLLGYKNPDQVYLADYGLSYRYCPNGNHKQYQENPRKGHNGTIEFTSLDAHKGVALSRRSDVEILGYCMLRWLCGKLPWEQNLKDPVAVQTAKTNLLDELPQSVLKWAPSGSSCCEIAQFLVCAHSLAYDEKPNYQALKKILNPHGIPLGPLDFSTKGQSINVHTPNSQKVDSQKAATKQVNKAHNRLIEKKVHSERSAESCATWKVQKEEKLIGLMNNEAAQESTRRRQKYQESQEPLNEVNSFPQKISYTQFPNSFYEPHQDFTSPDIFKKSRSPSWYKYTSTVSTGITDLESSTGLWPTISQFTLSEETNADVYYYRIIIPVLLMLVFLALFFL
Sequence of Rsk3(h) (Q15349 whole entry): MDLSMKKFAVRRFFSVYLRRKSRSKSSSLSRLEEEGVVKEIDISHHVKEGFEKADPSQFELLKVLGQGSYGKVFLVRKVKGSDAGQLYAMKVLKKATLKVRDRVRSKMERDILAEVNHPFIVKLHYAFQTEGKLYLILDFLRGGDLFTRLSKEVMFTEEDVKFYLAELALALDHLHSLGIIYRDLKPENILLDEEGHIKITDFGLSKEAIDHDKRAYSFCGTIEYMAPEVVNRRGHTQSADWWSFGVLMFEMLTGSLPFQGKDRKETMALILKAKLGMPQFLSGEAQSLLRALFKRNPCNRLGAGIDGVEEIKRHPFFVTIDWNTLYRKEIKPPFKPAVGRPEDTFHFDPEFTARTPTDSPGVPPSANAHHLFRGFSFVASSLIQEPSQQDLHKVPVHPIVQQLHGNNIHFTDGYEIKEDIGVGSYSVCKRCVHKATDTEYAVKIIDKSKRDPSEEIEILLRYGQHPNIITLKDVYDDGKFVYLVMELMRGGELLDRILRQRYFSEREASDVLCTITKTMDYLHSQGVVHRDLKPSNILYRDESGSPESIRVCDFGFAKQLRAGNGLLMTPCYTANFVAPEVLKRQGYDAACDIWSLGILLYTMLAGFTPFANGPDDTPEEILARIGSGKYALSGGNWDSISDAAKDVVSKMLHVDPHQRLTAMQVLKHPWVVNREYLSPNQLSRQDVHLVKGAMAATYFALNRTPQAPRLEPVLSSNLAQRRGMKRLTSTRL
Sequence of STK16(h) (O75716 whole entry): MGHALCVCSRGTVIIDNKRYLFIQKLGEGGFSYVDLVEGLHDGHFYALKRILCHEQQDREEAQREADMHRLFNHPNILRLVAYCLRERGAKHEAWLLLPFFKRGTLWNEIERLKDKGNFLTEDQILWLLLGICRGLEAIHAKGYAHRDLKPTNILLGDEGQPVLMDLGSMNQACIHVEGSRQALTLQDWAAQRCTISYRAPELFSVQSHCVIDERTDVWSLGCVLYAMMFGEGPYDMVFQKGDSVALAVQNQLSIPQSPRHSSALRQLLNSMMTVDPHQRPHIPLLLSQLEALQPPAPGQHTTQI

C[C@H](NC(=O)c1c[nH]c2ccc(-c3ccc4nc(NC(=O)C5CC5)sc4c3)cc12)c1cccc(F)c1 [Compound 34, (S)-5-(2-(cyclopropanecarboxamido)benzo[d]thiazol-6-yl)-N-(1-(3-fluorophenyl)ethyl)-1H-indole-3-carboxamide]
Inhibition ratio (CK1δ(h)): 33%
Inhibition ratio (ULK2(h)): 13%
Inhibition ratio (CLK2(h)): 77%
Inhibition ratio (Plk1(h)): 8%
Inhibition ratio (SIK2(h)): 39%
Inhibition ratio (CLK3(h)): 35%
Inhibition ratio (GRK7(h)): 4%
Inhibition ratio (VRK2(h)): 21%
Inhibition ratio (Flt4(h)): 93%
Inhibition ratio (PhKγ1(h)): 16%
Inhibition ratio (WNK2(h)): 38%
Inhibition ratio (MuSK(h)): 88%
Inhibition ratio (MRCKγ(h)): −1%
Inhibition ratio (CHK2(R145W)(h)): 37%
Inhibition ratio (Ret(V804M)(h)): 98%
Inhibition ratio (Lyn(h)): 52%
Inhibition ratio (PKCγ(h)): 7%
Inhibition ratio (STK16(h)): 17%
Inhibition ratio (ALK2(h)): 64%
Inhibition ratio (HIPK4(h)): 95%
Inhibition ratio (CDK16/cyclinY(h)): −30%
Inhibition ratio (PI3 Kinase (p120g)(h)): 35%
Inhibition ratio (CDK5/p25(h)): 16%
Inhibition ratio (EphA2(h)): 38%
Inhibition ratio (EphB1(h)): 45%
Inhibition ratio (Rsk3(h)): 49%
Inhibition ratio (CDK14/cyclinY(h)): 47%
Inhibition ratio (PKA(h)): −12%
Inhibition ratio (CDK18/cyclinY(h)): 7%
Inhibition ratio (DYRK3(h)): 48%
Inhibition ratio (Rsk4(h)): −15%
Inhibition ratio (PRK1(h)): 26%
Inhibition ratio (NIM1(h)): −19%
Inhibition ratio (EphB2(h)): 42%

C[C@H](NC(=O)c1cn(C)c2ccc(-c3ccn4nc(NC(=O)C5CC5)nc4c3)cc12)c1cccc(F)c1 [Compound 94, (S)-5-(2-(cyclopropanecarboxamido)-[1,2,4]triazolo[1,5-a]pyridin-7-yl)-N-(1-(3-fluorophenyl)ethyl)-1-methyl-1H-indole-3-carboxamide]
Inhibition ratio/% (CK1δ(h)): −12%
Inhibition ratio/% (ULK2(h)): 55%
Inhibition ratio/% (CLK2(h)): 77%
Inhibition ratio/% (Plk1(h)): 26%
Inhibition ratio/% (SIK2(h)): −4%
Inhibition ratio/% (CLK3(h)): 35%
Inhibition ratio/% (GRK7(h)): −16%
Inhibition ratio/% (VRK2(h)): −18%
Inhibition ratio/% (Flt4(h)): 34%
Inhibition ratio/% (PhKγ1(h)): −12%
Inhibition ratio/% (WNK2(h)): 6%
Inhibition ratio/% (MuSK(h)): 13%
Inhibition ratio/% (MRCKγ(h)): 55%
Inhibition ratio/% (CHK2(R145W)(h)): 69%
Inhibition ratio/% (Ret(V804M)(h)): 45%
Inhibition ratio/% (Lyn(h)): 55%
Inhibition ratio/% (PKCγ(h)): 47%
Inhibition ratio/% (STK16(h)): 20%
Inhibition ratio/% (ALK2(h)): −17%
Inhibition ratio/% (HIPK4(h)): 68%
Inhibition ratio/% (CDK16/cyclinY(h)): 51%
Inhibition ratio/% (PI3 Kinase (p120g)(h)): −12%
Inhibition ratio/% (CDK5/p25(h)): 46%
Inhibition ratio/% (EphA2(h)): 15%
Inhibition ratio/% (EphB1(h)): 1%
Inhibition ratio/% (Rsk3(h)): 27%
Inhibition ratio/% (CDK14/cyclinY(h)): 55%
Inhibition ratio/% (PKA(h)): 55%
Inhibition ratio/% (CDK18/cyclinY(h)): 74%
Inhibition ratio/% (DYRK3(h)): 10%
Inhibition ratio/% (Rsk4(h)): 3%
Inhibition ratio/% (PRK1(h)): −12%
Inhibition ratio/% (NIM1(h)): 10%
Inhibition ratio/% (EphB2(h)): 48%

Source: patent US20230365546A1, “5-SUBSTITUTED INDOLE 3-AMIDE DERIVATIVES, PREPARATION METHOD AND USE THEREOF” (ORIGIANT PHARMACEUTICAL CO., LTD, priority 2020, published 2023)
